# Measured values taken from patent US10591497B2, “Immunoassay for synthetic cannabinoids of the adamantyl indazole/indole-3-carboxamide family” (Randox Laboratories Limited, priority 2014, dated 2020).
# Tested on: antibody derived from Immunogen of Example 9
# Assay: Competitive immunoassay (ELISA), IC50 derivation and cross-reactivity
# Assay type: binding, sheep
# Details: for % CROSS-REACTIVITY: compared to 100% for AKB48; for % CROSS-REACTIVITY / IC50: Tracer 1 of Example 10; for IC50: Table 2, generated as per AKB48 and Table 1; for binding to the antibodies of the invention: "does not bind" = cross-reactivity of less than 2% vs 100% for AKB48 under Example 12 conditions
# Description: All cross-reactivity are measured herein under the experimental conditions of Example 12 and compared to 100% for AKB48.
# IgG is extracted from the antisera and immobilised on a 96 well ELISA plate (coated for 2 hours at +37° C. at 10 ug/ml in a Phosphate Buffered Saline pH7.2). Unbound material is removed by washing with Tris Buffered Saline (TBS) containing tween ([…]) over 10 minutes. Standard AKB48 is added at the concentrations quoted in Table 1, followed by detection agent 1 (FIG. 2) at 1/140 k in a dilution buffer. After incubation (60 mins) at +15 to +25° C. to allow a competition reaction to take place, the microtitre plate is washed with TBS containing Tween™ to remove excess reagents. The enzyme substrate […] (125 μl) is added (Kem-en-Tec Cat. No. 4800). After a 20 minute incubation period to allow maximum colour development, the colour reaction is stopped by the addition of sulphuric acid (0.2M, 120 μl). This produces a colour change from blue to yellow, and the absorbances are read at 450 nm. A standard curve is then constructed and the IC50 calculated as the AKB48 concentration which produces 50% inhibition of maximal signal. This process was repeated for synthetic cannabinoid members as stated in Table 2 to assess cross-reactivity.
# The cross-reactivity (CR) was calculated using the equation below. All calculations were based upon binding and displacement at the 50% of maximum OD (optical density) binding point. The maximum OD is the signal generated using tracer alone and 50% displacement (inhibition) corresponds to the IC50. […]
# The extent of antibody binding to synthetic cannabinoids of various families was assessed (Table 2). For the cross-reactants with IC50 values, standard curves were derived for each analyte (as per AKB48 and Table 1). […] In all cases, the cross-reactivity set out in Table 2 was measured using an antibody derived from the immunogen of Example 9 and Tracer 1 of Example 10.
# [1] = single cross-reactant at 300 ng/ml
# [2] = standard curve derived for each analyte
SMILES,% CROSS-REACTIVITY [1] [%],binding to the antibodies of the invention,other results
O=C(O)c1cn(CC2CCCCC2)c2ccccc12 [3-Carboxyindole metabolite of BB-22],<1.00,–,–
"CCCCCn1nc(C(=O)NC23CC4CC(CC(O)(C4)C2)C3)c2ccccc21 [3-OH-AKB48, (3-hydroxy-1-adamantyl) 1-pentylindazole-3-carboxamide]",–,–,IC50: 0.18 ng/mL; % CROSS-REACTIVITY [2]: 1163.53%
CCCCCn1cc(C(=O)NC23CC4CC(CC(O)(C4)C2)C3)c2ccccc21 [3-OH-SDB001],–,–,IC50: 4.40 ng/mL; % CROSS-REACTIVITY [2]: 47.30%
O=C(O)c1cn(CCCCCF)c2ccccc12 [3-carboxyindole of 5-fluoro PB-22],<1.00,–,–
O=C(Oc1cccc2cccnc12)c1cn(CCCCCF)c2ccccc12 [5-fluoro PB-22],<1.00,–,–
CC1(C)C(C(=O)c2cn(CC3CCOCC3)c3ccccc23)C1(C)C [A-834735],<1.00,–,–
CC1(C)C(C(=O)c2cn(CCN3CCOCC3)c3ccccc23)C1(C)C [A-7969260],<1.00,–,–
O=C(O)CCCCn1cc(C(=O)C23CC4CC(CC(C4)C2)C3)c2ccccc21 [AB001 N-Pentanoic Acid],<1.00,do not bind,–
O=C(c1cn(CCCCCO)c2ccccc12)C12CC3CC(CC(C3)C1)C2 [AB001 N-Pentanol],<1.00,do not bind,–
CCCCCn1nc(C(=O)N[C@H](C(N)=O)C(C)C)c2ccccc21 [AB Pinaca],<1.00,does not bind,–
O=C(NC12CC3CC(CC(C3)C1)C2)c1nn(CCCCCF)c2ccccc12 [AKB48 N-(5-fluoropentyl)],–,–,IC50: 2.10 ng/mL; % CROSS-REACTIVITY [2]: 98.90%
O=C(O)CCCCn1nc(C(=O)NC23CC4CC(CC(C4)C2)C3)c2ccccc21 [AKB48 N-Pentanoic acid (LK1461)],<1.00,do not bind,–
"CCCCCn1cc(C(=O)NC23CC4CC(CC(C4)C2)C3)c2ccccc21 [AKB48, N-(1-adamantyl)-1-pentyl-1H-indole-3-carboxamide]",–,–,% B/B0 (AKB48 concentration 0.25 ng/ml): 88%; % B/B0 (AKB48 concentration 0.74 ng/ml): 69%; % B/B0 (AKB48 concentration 2.22 ng/ml): 50%; % B/B0 (AKB48 concentration 6.67 ng/ml): 26%; % B/B0 (AKB48 concentration 20.00 ng/ml): 12%; IC50: 2.08 ng/mL; % CROSS-REACTIVITY [2]: 100.00%
N#CCCCCn1cc(C(=O)c2cccc3ccccc23)c2ccccc21 [AM2232],<1.00,–,–
O=C(c1ccccc1I)c1cn(CCCCCF)c2ccccc12 [AM-694],<1.00,does not bind,–
CN1CCCCC1Cn1cc(C(=O)C23CC4CC(CC(C4)C2)C3)c2ccccc21 (stereo not drawn) [AM-1248],<1.00,does not bind,–
O=C(c1cccc2ccccc12)c1cn(CCCCCF)c2cc(O)ccc12 [AM-2201 6-Hydroxyindole],<1.00,–,–
O=C(c1cccc2ccccc12)c1cn(CCCC(O)CF)c2ccccc12 (stereo not drawn) [AM-2201 N-(4-Hydroxypentyl)],<1.00,–,–
O=C(c1cccc2ccccc12)c1cn(CCCCCF)c2ccccc12 [AM-2201],<1.00,–,–
O=C(Oc1cccc2cccnc12)c1cn(CC2CCCCC2)c2ccccc12 [BB-22],<1.00,–,–
CCCCCn1c(C)c(C(=O)c2cccc3ccccc23)c2ccccc21 [JWH-007],<1.00,–,–
CCCn1c(C)c(C(=O)c2cccc3ccccc23)c2ccccc21 [JWH-015],<1.00,–,–
CCCCCn1cc(C(=O)c2cccc3ccccc23)c2c(O)cccc21 [JWH-018 4-Hydroxyindole],<1.00,–,–
CCCCCn1cc(C(=O)c2cccc3ccccc23)c2cc(O)ccc21 [JWH-018 5-Hydroxyindole],<1.00,–,–
CCCCCn1cc(C(=O)c2cccc3ccccc23)c2ccc(O)cc21 [JWH-018 6-Hydroxyindole],<1.00,–,–
O=C(c1cccc2ccccc12)c1cn(CCCCCO)c2ccccc12 [JWH-018 N-(5-Hydroxypentyl)],<1.00,–,–

SMILES,% CROSS-REACTIVITY [1] [%],binding to the antibodies of the invention,other results
O=C(O)CCCCn1cc(C(=O)c2cccc3ccccc23)c2ccccc21 [JWH-018 N-Pentanoic acid],<1.00,–,–
CCCCCn1cc(C(=O)c2cccc3ccccc23)c2ccccc21 [JWH-018],<1.00,do not bind,–
CCCCCCn1cc(C(=O)c2cccc3ccccc23)c2ccccc21 [JWH-019],<1.00,–,–
C=CCCCn1cc(C(=O)c2cccc3ccccc23)c2ccccc21 [JWH-022],<1.00,–,–
CCCCn1cc(C(=O)c2cccc3ccccc23)c2c(O)cccc21 [JWH-073 4-Hydroxyindole],<1.00,–,–
CCCCn1cc(C(=O)c2cccc3ccccc23)c2cc(O)ccc21 [JWH-073 5-Hydroxyindole],<1.00,–,–
CCCCn1cc(C(=O)c2cccc3ccccc23)c2ccccc21 [JWH-073],<1.00,do not bind,–
CCCCCn1cc(C(=O)c2ccc(OC)c3ccccc23)c2ccccc21 [JWH-081],<1.00,–,–
O=C(c1cccc2ccccc12)c1cn(CCN2CCOCC2)c2ccccc12 [JWH-200],<1.00,do not bind,–
CCCCCn1cc(C(=O)Cc2ccccc2Cl)c2ccccc21 [JWH-203],<1.00,does not bind,–
CCCCCn1cc(C(=O)c2ccc(CC)c3ccccc23)c2ccccc21 [JWH-210],<1.00,–,–
COc1ccccc1CC(=O)c1cn(CCCCCC(=O)O)c2ccccc12 [JWH-250 N-(5-Carboxypentyl)],<1.00,do not bind,–
COc1ccccc1CC(=O)c1cn(CCCCCO)c2ccccc12 [JWH-250 N-(5-Hydroxypentyl)],<1.00,do not bind,–
CCCCCn1cc(C(=O)c2ccc(Cl)c3ccccc23)c2ccccc21 [JWH-398],<1.00,–,–
O=C(c1c[nH]c2ccccc12)C12CC3CC(CC(C3)C1)C2 [N-Desalkyl AB001],<1.00,–,–
CCCCCn1cc(C(=O)O)c2ccccc21 [PB-22 3-Carboxyindole metabolite],<1.00,–,–
CCCCCn1cc(C(=O)Oc2cccc3cccnc23)c2ccccc21 [PB-22],<1.00,does not bind,–
CCCCCn1cc(C(=O)c2ccc(OC)cc2)c2ccccc21 [RCS-4],–,does not bind,IC50: 124.55 ng/mL; % CROSS-REACTIVITY [2]: 1.67%
COc1ccccc1CC(=O)c1cn(CCC2CCCCC2)c2ccccc12 [RCS-8],<1.00,does not bind,–
CCCCCn1cc(C(=O)NC23CC4CC(CC(C4)C2)C3)c2ccccc21 [SDB001],–,–,IC50: 52.00 ng/mL; % CROSS-REACTIVITY [2]: 4.07%
O=C(O)CCCCn1cc(C(=O)NC23CC4CC(CC(C4)C2)C3)c2ccccc21 [SDB-001 N-Pentanoic acid (LK1404)],<1.00,do not bind,–
O=C(NC12CC3CC(CC(C3)C1)C2)c1cn(CCCCCF)c2ccccc12 [STS135],–,–,IC50: 24.76 ng/mL; % CROSS-REACTIVITY [2]: 8.41%
CC1(C)C(C(=O)c2cn(CCCCC(=O)O)c3ccccc23)C1(C)C [UR-144 N Pentanoic acid],<1.00,–,–
CCCCCn1cc(C(=O)C2C(C)(C)C2(C)C)c2ccccc21 [UR-144],<1.00,do not bind,–
CC1(C)C(C(=O)c2cn(CCCCCF)c3ccccc23)C1(C)C [XLR-11],<1.00,do not bind,–
